# Data reported in patent US11084800B2 (Achillion Pharmaceuticals, Inc., priority 2017, dated 2021).
# Biological target: Human Factor D (Homo sapiens (Human), UniProt P00746)
# Test: Human Factor D Assay
# Type: biochemical
# Conditions: not given
# Summary of the method: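 Thioester substrate Z-L-Lys-SBz (100 μM) with Ellman's reagent DTNB (100 μM) reports activity of 80 nM human serum-derived enzyme, kinetically at 405 nm over 30 min. Compound preincubated 5 min, room temperature, pH 7.5 Tris/1 M NaCl; IC50 by nonlinear fit of rates.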
# Sequence of Human Factor D (P00746 26-253): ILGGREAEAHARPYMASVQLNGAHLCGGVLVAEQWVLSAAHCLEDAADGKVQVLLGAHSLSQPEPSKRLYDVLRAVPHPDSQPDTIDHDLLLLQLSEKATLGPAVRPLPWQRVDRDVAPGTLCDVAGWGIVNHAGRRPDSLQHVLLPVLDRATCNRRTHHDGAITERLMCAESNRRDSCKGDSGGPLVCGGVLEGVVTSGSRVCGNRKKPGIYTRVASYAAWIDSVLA
row,SMILES,IC50 [µM]
1,"CC(=O)c1nn(CC(=O)N2[C@H](C(=O)NC(Cc3ccccc3)Cc3ccccc3)C[C@@]3(C)C[C@@H]23)c2c(C)cc(-c3cnc(C)nc3)cc12 [Compound 505, (1R,3S,5R)-2-(2-(3-Acetyl-7-methyl-5-(2-methylpyrimidin-5-yl)-1H-indazol-1-yl)acetyl)-N-(1,3-diphenylpropan-2-yl)-5-methyl-2-azabicyclo[3.1.0]hexane-3-carboxamide]",1 to 10

# Same assay, conditions: Factor D inhibition, assay of Example 10; read-out: IC5 (Stars)
row,SMILES,IC50 [µM]
1,"Cc1ncc(-c2ccc3c(c2)c(C(=O)C(F)(F)F)cn3CC(=O)N2[C@H](C(=O)Nc3nc(Br)ccc3C)C[C@@]3(C)C[C@@H]23)cn1 [Compound 465, (1R,3S,5R)-N-(6-bromo-3-methylpyridin-2-yl)-5-methyl-2-(2-(5-(2-methylpyrimidin-5-yl)-3-(2,2,2-trifluoroacetyl)-1H-indol-1-yl)acetyl)-2-azabicyclo[3.1.0]hexane-3-carboxamide]",< 1
2,"CC(=O)c1nn(CC(=O)N2[C@H](C(=O)Nc3nc(Br)ccc3C)C[C@@]3(CNC(C)C)C[C@@H]23)c2c(C)cc(-c3cnc(C)nc3)cc12 [Compound 297, (1R,3S,5R)-2-(2-(3-acetyl-7-methyl-5-(2-methylpyrimidin-5-yl)-1H-indazol-1-yl)acetyl)-N-(6-bromo-3-methylpyridin-2-yl)-5-((isopropylamino)methyl)-2-azabicyclo[3.1.0]hexane-3-carboxamide]",< 1
3,"CC(=O)c1nn(CC(=O)N(C(=O)[C@@H]2C[C@@]3(C)C[C@H]3N2)c2nc(Br)ccc2CN(CCC(F)(F)F)CCC(F)(F)F)c2cnc(-c3cnc(C)nc3)cc12 [Compound 396, (1R,3S,5R)-2-(2-(3-acetyl-5-(2-methylpyrimidin-5-yl)-1H-pyrazolo[3,4-c]pyridin-1-yl)acetyl)-N-(3-((bis(3,3,3-trifluoropropyl)amino)methyl)-6-bromopyridin-2-yl)-5-methyl-2-azabicyclo[3.1.0]hexane-3-carboxamide]",< 1
4,"CC(=O)c1nn(CC(=O)N2[C@H](C(=O)Nc3nc(Br)ccc3CN3CC4CCC3C4)C[C@@]3(C)C[C@@H]23)c2ccc(-c3cnc(C)nc3)cc12 (stereo partly drawn) [Compound 308, (1R,3S,5R)-N-(3-(2-azabicyclo[2.2.1]heptan-2-ylmethyl)-6-bromopyridin-2-yl)-2-(2-(3-acetyl-5-(2-methylpyrimidin-5-yl)-1H-indazol-1-yl)acetyl)-5-methyl-2-azabicyclo[3.1.0]hexane-3-carboxamide]",< 1
5,"CC(=O)c1nn(CC(=O)N2[C@H](C(=O)Nc3nc(Br)ccc3C)C[C@@]3(C)C[C@@H]23)c2c(CO)cc(-c3cnc(C)nc3)cc12 [Compound 526, (1R,3S,5R)-2-(2-(3-Acetyl-7-(hydroxymethyl)-5-(2-methylpyrimidin-5-yl)-1H-indazol-1-yl)acetyl)-N-(6-bromo-3-methylpyridin-2-yl)-5-methyl-2-azabicyclo[3.1.0]hexane-3-carboxamide]",< 1
6,"CC(=O)c1nn(CC(=O)N2[C@H](C(=O)Nc3nc(-c4ccccn4)ccc3C)C[C@@]3(C)C[C@@H]23)c2ccc(-c3cnc(C)nc3)cc12 [Compound 450, (1R,3S,5R)-2-(2-(3-acetyl-5-(2-methylpyrimidin-5-yl)-1H-indazol-1-yl)acetyl)-5-methyl-N-(5-methyl-[2,2′-bipyridin]-6-yl)-2-azabicyclo[3.1.0]hexane-3-carboxamide]",1 to 10
7,"CC(=O)c1nn(CC(=O)N2[C@H](C(=O)N[C@@H](C)c3ccc(C)cc3)C[C@@]3(C)C[C@@H]23)c2ccc(-c3cnc(C)nc3)cc12 [Compound 598, (1R,3S,5R)-2-(2-(3-acetyl-5-(2-methylpyrimidin-5-yl)-1H-indazol-1-yl)acetyl)-5-methyl-N-((S)-1-(p-tolyl)ethyl)-2-azabicyclo[3.1.0]hexane-3-carboxamide]",1 to 10
8,"CC(=O)c1nn(CC(=O)N2[C@H](C(=O)Nc3cncc(Br)n3)C[C@@]3(Cc4nc(C)no4)C[C@@H]23)c2c(C)cc(-c3cnc(C)nc3)cc12 [Compound 447, (1R,3S,5R)-2-(2-(3-acetyl-7-methyl-5-(2-methylpyrimidin-5-yl)-1H-indazol-1-yl)acetyl)-N-(6-bromopyrazin-2-yl)-5-((3-methyl-1,2,4-oxadiazol-5-yl)methyl)-2-azabicyclo[3.1.0]hexane-3-carboxamide]",< 1
9,"CC(=O)c1nn(CC(=O)N2[C@H](C(=O)Nc3nc(Br)ccc3CN3C(C)(C)COCC3(C)C)C[C@@]3(C)C[C@@H]23)c2cnc(-c3cnc(C)nc3)cc12 [Compound 289, (1R,3S,5R)-2-(2-(3-acetyl-5-(2-methylpyrimidin-5-yl)-1H-pyrazolo[3,4-c]pyridin-1-yl)acetyl)-N-(6-bromo-3-((3,3,5,5-tetramethylmorpholino)methyl)pyridin-2-yl)-5-methyl-2-azabicyclo[3.1.0]hexane-3-carboxamide]",< 1
10,"CC(=O)c1nn(CC(=O)N2C[C@H]3C[C@H]3[C@H]2C(=O)NCc2cccc(Cl)c2F)c2c(C)nc(-c3cnc(C)nc3)cc12 [Compound 411, (1R,2S,5S)-3-(2-(3-acetyl-7-methyl-5-(2-methylpyrimidin-5-yl)-1H-pyrazolo[3,4-c]pyridin-1-yl)acetyl)-N-(3-chloro-2-fluorobenzyl)-3-azabicyclo[3.1.0]hexane-2-carboxamide]",< 1
11,"CNCCCNC(=O)[C@@H]1C[C@@]2(C)C[C@H]2N1C(=O)Cn1nc(C(C)=O)c2cc(-c3cnc(C)nc3)ccc21 [Compound 519, (1R,3S,5R)-2-(2-(3-acetyl-5-(2-methylpyrimidin-5-yl)-1H-indazol-1-yl)acetyl)-5-methyl-N-(3-(methylamino)propyl)-2-azabicyclo[3.1.0]hexane-3-carboxamide]",1 to 10
12,"CC(=O)c1nn(CC(=O)N2C[C@@](F)(CF)C[C@H]2C(=O)Nc2cncc(Br)n2)c2c(C)nc(-c3cnc(C)nc3)cc12 [Compound 418, (2S,4R)-1-(2-(3-acetyl-7-methyl-5-(2-methylpyrimidin-5-yl)-1H-pyrazolo[3,4-c]pyridin-1-yl)acetyl)-N-(6-bromopyrazin-2-yl)-4-fluoro-4-(fluoromethyl)pyrrolidine-2-carboxamide]",< 1
13,"CC(=O)c1cn(CC(=O)N2[C@H](C(=O)Nc3nc(Br)ccc3C)C[C@@]3(C)C[C@@H]23)c2ccc(-c3cnc(C)nc3)cc12 [Compound 416, (1R,3S,5R)-2-(2-(3-acetyl-5-(2-methylpyrimidin-5-yl)-1H-indol-1-yl)acetyl)-N-(6-bromo-3-methylpyridin-2-yl)-5-methyl-2-azabicyclo[3.1.0]hexane-3-carboxamide]",< 1
14,"CC(=O)c1nn(CC(=O)N2[C@H](C(=O)NCCCN(C)C)C[C@@]3(C)C[C@@H]23)c2ccc(-c3cnc(C)nc3)cc12 [Compound 520, (1R,3S,5R)-2-(2-(3-acetyl-5-(2-methylpyrimidin-5-yl)-1H-indazol-1-yl)acetyl)-N-(3-(dimethylamino)propyl)-5-methyl-2-azabicyclo[3.1.0]hexane-3-carboxamide]",1 to 10

# Same assay, conditions: Table 6; Factor D 80 nM, substrate Z-L-Lys-SBz; read-out: IC50
row,SMILES,IC50 [µM]
1,CC(=O)c1nn(CC(=O)N2[C@H](C(=O)Nc3nc(Br)ccc3C)C[C@@]3(COCCN(C)C)C[C@@H]23)c2ccc(-c3cnc(C)nc3)cc12 [Compound 157],< 1
2,"NC(=O)c1cc(-c2cccnc2)n(CC(=O)N2C[C@H](F)C[C@H]2C(=O)Nc2cccc(Br)n2)n1 [Compound 211, 1-(2-((2S,4R)-2-((6-Bromopyridin-2-yl)carbamoyl)-4-fluoropyrrolidin-1-yl)-2-oxoethyl)-5-(pyridin-3-yl)-1H-pyrazole-3-carboxamide]",< 1
3,"CC(=O)c1nn(CC(=O)N2[C@H](C(=O)Nc3nc(Br)ccc3C)C[C@@]3(CN4CCN(C(C)=O)CC4)C[C@@H]23)c2ccc(-c3cnc(C)nc3)cc12 [Compound 78, (1R,3S,5R)-2-(2-(3-acetyl-5-(2-methylpyrimidin-5-yl)-1H-indazol-1-yl)acetyl)-5-((4-acetylpiperazin-1-yl)methyl)-N-(6-bromo-3-methylpyridin-2-yl)-2-azabicyclo[3.1.0]hexane-3-carboxamide]",< 1
4,"CC(=O)c1nn(CC(=O)N2[C@@H]3C[C@@H]3C[C@H]2C(=O)NC/C(F)=C(/C)c2ccccc2)c2c(C)cc(-c3cnc(C)nc3)cc12 [Compound 17, (1R,3S,5R)-2-(2-(3-Acetyl-7-methyl-5-(2-methylpyrimidin-5-yl)-1H-indazol-1-yl)acetyl)-N-((E)-2-fluoro-3-phenylbut-2-en-1-yl)-2-azabicyclo[3.1.0]hexane-3-carboxamide]",< 1
5,"CC(=O)c1nn(CC(=O)N2[C@H](C(=O)Nc3nc(Br)c(F)cc3C)C[C@@]3(C)C[C@@H]23)c2ccc(-c3cnc(C)nc3)cc12 [Compound 178, (1R,3S,5R)-2-(2-(3-Acetyl-5-(2-methylpyrimidin-5-yl)-1H-indazol-1-yl)acetyl)-N-(6-bromo-5-fluoro-3-methylpyridin-2-yl)-5-methyl-2-azabicyclo[3.1.0]hexane-3-carboxamide]",< 1
6,"COCc1cc(-c2cnc(C)nc2)cc2c(C(C)=O)nn(CC(=O)N3[C@H](C(=O)Nc4nc(Br)ccc4C)C[C@@]4(COC)C[C@@H]34)c12 [Compound 114, (1R,3S,5S)-2-(2-(3-Acetyl-7-(methoxymethyl)-5-(2-methylpyrimidin-5-yl)-1H-indazol-1-yl)acetyl)-N-(6-bromo-3-methylpyridin-2-yl)-5-(methoxymethyl)-2-azabicyclo[3.1.0]hexane-3-carboxamide]",< 1
7,"CC(=O)c1nn(CC(=O)N2C[C@H]3C[C@H]3[C@H]2C(=O)Nc2nc(Br)ccc2C)c2cnc(-c3cnc(C)nc3)cc12 [Compound 141, (1R,2S,5S)-3-(2-(3-Acetyl-5-(2-methylpyrimidin-5-yl)-1H-pyrazolo[3,4-c]pyridin-1-yl)acetyl)-N-(6-bromo-3-methylpyridin-2-yl)-3-azabicyclo[3.1.0]hexane-2-carboxamide]",< 1

# Same assay, conditions: Table 8; Factor D 80 nM, substrate Z-L-Lys-SBz; read-out: IC50
row,SMILES,IC50 [µM]
1,CCCCNC(=O)c1nn(CC(=O)N2[C@H](C(=O)Nc3nc(Br)ccc3C)C[C@@]3(C)C[C@@H]23)c2ccc(-c3cnc(C)nc3)cc12 [Compound 476],< 1
